Laboratory results from ChEMBL document CHEMBL3745712, “Identification of N-(4-((1R,3S,5S)-3-Amino-5-methylcyclohexyl)pyridin-3-yl)-6-(2,6-difluorophenyl)-5-fluoropicolinamide (PIM447), a Potent and Selective Proviral Insertion Site of Moloney Murine Leukemia (PIM) 1, 2, and 3 Kinase Inhibitor in Clinical Trials for Hematological Malignancies” (J Med Chem, 2015).

Assays:
[1] = cells; assay type: functional, cell-based; conditions: Homo sapiens, KMS-11, 72 h
Description: Antiproliferative activity against luciferase expressing human KMS11 cells after 72 hrs by Cell-TiterGlo assay

[2] = in vitro; conditions: human, microsomes
[3] = in vitro; conditions: human, microsomes; remark: listed apart in the source
[4] = in vitro; conditions: rat, microsomes
[5] = in vitro; conditions: rat, microsomes; remark: listed apart in the source
[6] = molecular target: Serine/threonine-protein kinase pim-3 (Homo sapiens, UniProt Q86V86)
[7] = cells; assay type: cell-based, KMS11; conditions: Homo sapiens, KMS-11, 1 h
[8] = molecular target: Serine/threonine-protein kinase pim-1 (Homo sapiens, UniProt P11309)
Serine/threonine-protein kinase pim-1, sequence (P11309 whole entry): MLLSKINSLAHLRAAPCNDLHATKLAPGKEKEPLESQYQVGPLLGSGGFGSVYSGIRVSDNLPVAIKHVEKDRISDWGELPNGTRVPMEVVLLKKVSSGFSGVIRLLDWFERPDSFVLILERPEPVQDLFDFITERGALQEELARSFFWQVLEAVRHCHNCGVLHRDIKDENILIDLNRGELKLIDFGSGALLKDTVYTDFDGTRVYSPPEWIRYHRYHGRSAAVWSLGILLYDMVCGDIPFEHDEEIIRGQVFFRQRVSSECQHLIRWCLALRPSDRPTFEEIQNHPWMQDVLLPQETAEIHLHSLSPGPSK

| SMILES | EC50 [1] [nM] | half-life at 0.5 h, 1 µM [2] [min] | CLhep predicted at 0.5 h, 1 µM [3] [mL/min/kg] | half-life at 0.5 h, 1 µM [4] [min] | CLhep predicted at 0.5 h, 1 µM [5] [mL/min/kg] | Ki [6] [nM] | EC50 [7] [nM] | Ki [8] [nM] |
| --- | --- | --- | --- | --- | --- | --- | --- | --- |
| C[C@@H]1C[C@H](N)C[C@H](c2ccncc2NC(=O)c2ccc(F)c(-c3ccccc3F)n2)C1 |  | > 180 | < 6 | 92 |  |  |  |  |
| C[C@@H]1C[C@H](N)CN(c2ccncc2NC(=O)c2csc(-c3c(F)cccc3F)n2)C1 | 390 | 49 | 13 | 9 | 47 |  |  |  |
| N[C@H]1CCC[C@@H](c2ccncc2NC(=O)c2csc(-c3c(F)cccc3F)n2)C1 | 5000 | 121 | 8 | 85 | 21 |  |  |  |
| C[C@@H]1C[C@H](N)C[C@H](c2ccncc2NC(=O)c2csc(-c3c(F)cccc3F)n2)C1 | 910 | > 180 | < 6 | 65 | 24 | 4 | 320 | < 1 |
| Nc1ccc(C2CCCCC2)nc1C(=O)Nc1cnccc1N1CCC[C@H](N)C1 |  | 14 | 18 | 3 | 52 | 3 |  | < 1 |
| CN1CCC(CNc2ccc3ncc(-c4cccc(OC(F)(F)F)c4)n3n2)CC1 [SGI-1776] | 5000 |  |  |  |  |  |  |  |

Next, values leading:

| EC50 [1] [nM] | half-life at 0.5 h, 1 µM [2] [min] | CLhep predicted at 0.5 h, 1 µM [3] [mL/min/kg] | half-life at 0.5 h, 1 µM [4] [min] | CLhep predicted at 0.5 h, 1 µM [5] [mL/min/kg] | Ki [6] [nM] | EC50 [7] [nM] | Ki [8] [nM] | SMILES |
| --- | --- | --- | --- | --- | --- | --- | --- | --- |
| 670 |  |  |  |  |  |  |  | N[C@@H]1CCCN(c2c(/C=C3\SC(=O)NC3=O)cccc2-c2ccccc2)C1 |
|  | 85 | 10 | 8 |  |  |  |  | Nc1ccc(C2CCCCC2)nc1C(=O)Nc1cnccc1[C@@H]1CCC[C@H](N)C1 |
| 1200 | 70 | 11 | 6 | 49 |  |  |  | N[C@H]1CCCN(c2ccncc2NC(=O)c2csc(-c3c(F)cccc3F)n2)C1 |
|  | 13 | 18 | 11 | 45 | < 3 |  |  | C[C@@H]1C[C@H](N)CN(c2ccncc2NC(=O)c2ccc(F)c(-c3ccccc3F)n2)C1 |
| 1400 | 25 | 16 | 13 | 44 | < 3 |  | < 1 | N[C@H]1CCCN(c2ccncc2NC(=O)c2ccc(F)c(-c3c(F)cccc3F)n2)C1 |
|  | 40 | 14 | 20 | 40 |  |  |  | C[C@@H]1C[C@H](N)CN(c2ccncc2NC(=O)c2ccc(F)c(-c3c(F)cccc3F)n2)C1 |
